Test results as given in ChEMBL document CHEMBL1687817, “Tigecycline population pharmacokinetics in patients with community- or hospital-acquired pneumonia” (Antimicrob Agents Chemother, 2010).

How the values were obtained:
Format in all cases: ADME, organism-based
[1] = Clearance in patient with community or hospital-acquired pneumonia at […], iv loading dose followed by […] administered every 12 hrs; conditions: human, in vivo
[2] = Volume of distribution in central compartment in patient with community or hospital-acquired pneumonia at […], iv loading dose followed by […] administered every 12 hrs; conditions: human, in vivo, read-out: Vc
Homo sapiens [3] = test: Distributional clearance in patient with community or hospital-acquired pneumonia at […], iv loading dose followed by […] administered every 12 hrs; conditions: in vivo
Homo sapiens [4] = test: Volume of distribution at steady state in patient with community or hospital-acquired pneumonia at […], iv loading dose followed by […] administered every 12 hrs; conditions: in vivo

CN(C)c1cc(NC(=O)CNC(C)(C)C)c(O)c2c1C[C@H]1C[C@H]3[C@H](N(C)C)C(O)=C(C(N)=O)C(=O)[C@@]3(O)C(O)=C1C2=O [TIGECYCLINE]
clearance [1]: 320 mL/min
Vd [2]: 65.2 L
CLd (Homo sapiens [3]): 85.1 L/h
Vdss (Homo sapiens [4]): 398 L
